Test results reported in patent US20170190671A1, “BIS(ARYL)CATECHOL DERIVATIVES AS HERBICIDES” (E I DU PONT DE NEMOURS AND COMPANY, priority 2014, published 2017).

What was measured:
Type in all cases: in vivo
[1] = tested on: winter wheat (Triticum aestivum); experiment: Test C postemergence; conditions: Triticum aestivum, post-emergence, 336 h, Postemergence, scale 0 to 100, read-out: Plant response rating, Wheat
Outline: (§1)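 Greenhouse test, preemergence on seeded soil or postemergence on 1- to 4-leaf plants. Response is a visual 0-100 rating versus controls, taken 13-15 days after treatment.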

[2] = tested on: Italian ryegrass (Lolium multiflorum); experiment: Test C postemergence; conditions: Lolium multiflorum, post-emergence, 336 h, Postemergence, scale 0 to 100, read-out: Plant response rating, Ryegrass, Italian
Outline: as §1

wild oat (Avena fatua) = experiment: Test C postemergence; conditions: Avena fatua, post-emergence, Postemergence, scale 0 to 100, read-out: Plant response rating, Oat, Wild
Outline: as §1

soybean (Glycine max) = experiment: Test C postemergence; conditions: Glycine max, post-emergence, Postemergence, scale 0 to 100, read-out: Plant response rating, Soybean
Outline: as §1

[3] = tested on: ragweed (common ragweed, Ambrosia elatior); experiment: Test C postemergence; conditions: Ambrosia artemisiifolia, post-emergence, 336 h, Postemergence, scale 0 to 100, read-out: Plant response rating, Ragweed
Outline: as §1

[4] = tested on: barnyardgrass (Echinochloa crus-galli); experiment: Test C postemergence; conditions: Echinochloa crus-galli, post-emergence, Postemergence, scale 0 to 100, read-out: Plant response rating, Barnyardgrass
Outline: as §1

[5] = tested on: giant foxtail (Setaria faberii); experiment: Test C postemergence; conditions: Setaria faberi, post-emergence, 336 h, Postemergence, scale 0 to 100, read-out: Plant response rating, Foxtail, Giant
Outline: as §1

[6] = tested on: lambsquarters (Chenopodium album); experiment: Test C postemergence; conditions: Chenopodium album, post-emergence, 336 h, Postemergence, scale 0 to 100, read-out: Plant response rating, Lambsquarters
Outline: as §1

[7] = tested on: large (Lg) crabgrass (Digitaria sanguinalis); experiment: Test C postemergence; conditions: Digitaria sanguinalis, post-emergence, 336 h, Postemergence, scale 0 to 100, read-out: Plant response rating, Crabgrass, Large
Outline: as §1

[8] = tested on: johnsongrass (Sorghum halepense); experiment: Test C postemergence; conditions: Sorghum halepense, post-emergence, 336 h, Postemergence, scale 0 to 100, read-out: Plant response rating, Johnsongrass
Outline: as §1

[9] = tested on: waterhemp (common waterhemp, Amaranthus rudis); experiment: Test C postemergence; conditions: Amaranthus tuberculatus, post-emergence, Postemergence, scale 0 to 100, read-out: Plant response rating, Waterhemp
Outline: as §1

[10] = tested on: velvetleaf (Abutilon theophrasti); experiment: Test C postemergence; conditions: Abutilon theophrasti, post-emergence, Postemergence, scale 0 to 100, read-out: Plant response rating, Velvetleaf
Outline: as §1

[11] = tested on: morningglory (Ipomoea coccinea); experiment: Test C postemergence; conditions: Ipomoea, post-emergence, 336 h, Postemergence, scale 0 to 100, read-out: Plant response rating, Morningglory
Outline: as §1

[12] = tested on: blackgrass (Alopecurus myosuroides); experiment: Test C postemergence; conditions: Alopecurus myosuroides, post-emergence, 336 h, Postemergence, scale 0 to 100, read-out: Plant response rating, Blackgrass
Outline: as §1

[13] = tested on: oilseed rape (Brassica napus); experiment: Test C postemergence; conditions: Brassica napus, post-emergence, Postemergence, scale 0 to 100, read-out: Plant response rating, Oilseed Rape
Outline: as §1

corn (Zea mays) = experiment: Test C postemergence; conditions: Zea mays, post-emergence, 336 h, Postemergence, scale 0 to 100
Outline: as §1

[14] = tested on: chickweed (common chickweed, Stellaria media); experiment: Test C postemergence; conditions: Stellaria media, post-emergence, Postemergence, scale 0 to 100, read-out: Plant response rating, Chickweed
Outline: as §1

[15] = tested on: yellow nutsedge (Cyperus esculentus); experiment: Test C postemergence; conditions: Cyperus, post-emergence, 336 h, Postemergence, scale 0 to 100, read-out: Plant response rating, Nutsedge, Yellow
Outline: as §1

[16] = tested on: galium (catchweed bedstraw, Galium aparine); experiment: Test C postemergence; conditions: Galium, post-emergence, 336 h, Postemergence, scale 0 to 100, read-out: Plant response rating, Galium
Outline: as §1

[17] = tested on: barnyardgrass (Echinochloa crus-galli); experiment: Test C preemergence; conditions: Echinochloa crus-galli, pre-emergence, preemergence, scale 0 to 100, read-out: Plant response rating, Barnyardgrass
Outline: as §1

[18] = tested on: johnsongrass (Sorghum halepense); experiment: Test C preemergence; conditions: Sorghum halepense, pre-emergence, 336 h, preemergence, scale 0 to 100, read-out: Plant response rating, Johnsongrass
Outline: as §1

[19] = tested on: galium (catchweed bedstraw, Galium aparine); experiment: Test C preemergence; conditions: Galium, pre-emergence, 336 h, preemergence, scale 0 to 100, read-out: Plant response rating, Galium
Outline: as §1

**Q.** Which results are given for Fc1cnc(Oc2c(F)cccc2Oc2ncc(Cl)cn2)nc1 [Compound 23]?
**A.** plant injury at 31 g/ha ([1]; 31 g ai/ha): 0%; plant injury at 62 g/ha ([1]; 62 g ai/ha): 0%; plant injury at 125 g/ha ([1]; 125 g ai/ha): 0%; plant injury at 250 g/ha ([1]; 250 g ai/ha): 5%; pest or weed control at 31 g/ha ([2]; 31 g ai/ha): 0%; pest or weed control at 62 g/ha ([2]; 62 g ai/ha): 0%; pest or weed control at 125 g/ha ([2]; 125 g ai/ha): 0%; pest or weed control at 250 g/ha ([2]; 250 g ai/ha): 35%; pest or weed control at 31 g/ha (wild oat (Avena fatua); 31 g ai/ha): 0%; pest or weed control at 62 g/ha (wild oat (Avena fatua); 62 g ai/ha): 0%; pest or weed control at 125 g/ha (wild oat (Avena fatua); 125 g ai/ha): 0%; pest or weed control at 250 g/ha (wild oat (Avena fatua); 250 g ai/ha): 5%; plant injury at 31 g/ha (soybean (Glycine max); 31 g ai/ha): 70%; plant injury at 62 g/ha (soybean (Glycine max); 62 g ai/ha): 65%; plant injury at 125 g/ha (soybean (Glycine max); 125 g ai/ha): 90%; plant injury at 250 g/ha (soybean (Glycine max); 250 g ai/ha): 95%; pest or weed control at 31 g/ha ([3]; 31 g ai/ha): 60%; pest or weed control at 62 g/ha ([3]; 62 g ai/ha): 70%; pest or weed control at 125 g/ha ([3]; 125 g ai/ha): 75%; pest or weed control at 250 g/ha ([3]; 250 g ai/ha): 100%; pest or weed control at 31 g/ha ([4]; 31 g ai/ha): 5%; pest or weed control at 62 g/ha ([4]; 62 g ai/ha): 10%; pest or weed control at 125 g/ha ([4]; 125 g ai/ha): 10%; pest or weed control at 250 g/ha ([4]; 250 g ai/ha): 25%; pest or weed control at 31 g/ha ([5]; 31 g ai/ha): 0%; pest or weed control at 62 g/ha ([5]; 62 g ai/ha): 5%; pest or weed control at 125 g/ha ([5]; 125 g ai/ha): 10%; pest or weed control at 250 g/ha ([5]; 250 g ai/ha): 35%; pest or weed control at 31 g/ha ([6]; 31 g ai/ha): 70%; pest or weed control at 62 g/ha ([6]; 62 g ai/ha): 80%; pest or weed control at 125 g/ha ([6]; 125 g ai/ha): 90%; pest or weed control at 250 g/ha ([6]; 250 g ai/ha): 95%; pest or weed control at 31 g/ha ([7]; 31 g ai/ha): 5%; pest or weed control at 62 g/ha ([7]; 62 g ai/ha): 5%; pest or weed control at 125 g/ha ([7]; 125 g ai/ha): 10%; pest or weed control at 250 g/ha ([7]; 250 g ai/ha): 30%; pest or weed control at 31 g/ha ([8]; 31 g ai/ha): 0%; pest or weed control at 62 g/ha ([8]; 62 g ai/ha): 0%; pest or weed control at 125 g/ha ([8]; 125 g ai/ha): 5%; pest or weed control at 250 g/ha ([8]; 250 g ai/ha): 5%; pest or weed control at 31 g/ha ([9]; 31 g ai/ha): 65%; pest or weed control at 62 g/ha ([9]; 62 g ai/ha): 75%; pest or weed control at 125 g/ha ([9]; 125 g ai/ha): 90%; pest or weed control at 250 g/ha ([9]; 250 g ai/ha): 98%; pest or weed control at 31 g/ha ([10]; 31 g ai/ha): 70%; pest or weed control at 62 g/ha ([10]; 62 g ai/ha): 70%; pest or weed control at 125 g/ha ([10]; 125 g ai/ha): 75%; pest or weed control at 250 g/ha ([10]; 250 g ai/ha): 90%; pest or weed control at 31 g/ha ([11]; 31 g ai/ha): 60%; pest or weed control at 62 g/ha ([11]; 62 g ai/ha): 75%; pest or weed control at 125 g/ha ([11]; 125 g ai/ha): 85%; pest or weed control at 250 g/ha ([11]; 250 g ai/ha): 95%; pest or weed control at 31 g/ha ([12]; 31 g ai/ha): 0%; pest or weed control at 62 g/ha ([12]; 62 g ai/ha): 5%; pest or weed control at 125 g/ha ([12]; 125 g ai/ha): 5%; pest or weed control at 250 g/ha ([12]; 250 g ai/ha): 30%; plant injury at 31 g/ha ([13]; 31 g ai/ha): 10%; plant injury at 62 g/ha ([13]; 62 g ai/ha): 30%; plant injury at 125 g/ha ([13]; 125 g ai/ha): 50%; plant injury at 250 g/ha ([13]; 250 g ai/ha): 45%; Corn plant response rating (crop injury, 0 = no effect, 100 = complete kill) at 31 g/ha (corn (Zea mays); 31 g ai/ha): 5%; Corn plant response rating (crop injury, 0 = no effect, 100 = complete kill) at 62 g/ha (corn (Zea mays); 62 g ai/ha): 5%; Corn plant response rating (crop injury, 0 = no effect, 100 = complete kill) at 125 g/ha (corn (Zea mays); 125 g ai/ha): 10%; Corn plant response rating (crop injury, 0 = no effect, 100 = complete kill) at 250 g/ha (corn (Zea mays); 250 g ai/ha): 10%; pest or weed control at 31 g/ha ([14]; 31 g ai/ha): 50%; pest or weed control at 62 g/ha ([14]; 62 g ai/ha): 50%; pest or weed control at 125 g/ha ([14]; 125 g ai/ha): 60%; pest or weed control at 250 g/ha ([14]; 250 g ai/ha): 60%; pest or weed control at 31 g/ha ([15]; 31 g ai/ha): 0%; pest or weed control at 62 g/ha ([15]; 62 g ai/ha): 0%; pest or weed control at 125 g/ha ([15]; 125 g ai/ha): 5%; pest or weed control at 250 g/ha ([15]; 250 g ai/ha): 5%; pest or weed control at 31 g/ha ([16]; 31 g ai/ha): 70%; pest or weed control at 62 g/ha ([16]; 62 g ai/ha): 90%; pest or weed control at 125 g/ha ([16]; 125 g ai/ha): 95%; pest or weed control at 250 g/ha ([16]; 250 g ai/ha): 95%; pest or weed control at 31 g/ha ([17]; 31 g ai/ha): 75%; pest or weed control at 62 g/ha ([17]; 62 g ai/ha): 100%; pest or weed control at 125 g/ha ([17]; 125 g ai/ha): 100%; pest or weed control at 250 g/ha ([17]; 250 g ai/ha): 100%; pest or weed control at 31 g/ha ([18]; 31 g ai/ha): 40%; pest or weed control at 62 g/ha ([18]; 62 g ai/ha): 50%; pest or weed control at 125 g/ha ([18]; 125 g ai/ha): 90%; pest or weed control at 31 g/ha ([19]; 31 g ai/ha): 100%; pest or weed control at 62 g/ha ([19]; 62 g ai/ha): 100%; pest or weed control at 125 g/ha ([19]; 125 g ai/ha): 100%
